# Test results published in publication PMC8863579, “Effects of pharmacological inhibition of the sodium‐dependent phosphate cotransporter 2b (NPT2b) on intestinal phosphate absorption in mouse and rat models” (Pharmacology Research & Perspectives, 2022).
# Several values for one entry are separate records, joined by “and”; a condition that tells them apart may be missing. Identical values can stand only once.
# Key:
# NPT2b = biological target: T1, NPT2b (Rattus norvegicus, UniProt Q9JJ09); assay: Acute phosphate uptake into plasma in rats; type: in vivo; details: 10 mg/kg
# T1 construct: from tissue; host or cells: intestine of live Sprague Dawley rats, oral dosing
# T1 sequence (Q9JJ09 1-695): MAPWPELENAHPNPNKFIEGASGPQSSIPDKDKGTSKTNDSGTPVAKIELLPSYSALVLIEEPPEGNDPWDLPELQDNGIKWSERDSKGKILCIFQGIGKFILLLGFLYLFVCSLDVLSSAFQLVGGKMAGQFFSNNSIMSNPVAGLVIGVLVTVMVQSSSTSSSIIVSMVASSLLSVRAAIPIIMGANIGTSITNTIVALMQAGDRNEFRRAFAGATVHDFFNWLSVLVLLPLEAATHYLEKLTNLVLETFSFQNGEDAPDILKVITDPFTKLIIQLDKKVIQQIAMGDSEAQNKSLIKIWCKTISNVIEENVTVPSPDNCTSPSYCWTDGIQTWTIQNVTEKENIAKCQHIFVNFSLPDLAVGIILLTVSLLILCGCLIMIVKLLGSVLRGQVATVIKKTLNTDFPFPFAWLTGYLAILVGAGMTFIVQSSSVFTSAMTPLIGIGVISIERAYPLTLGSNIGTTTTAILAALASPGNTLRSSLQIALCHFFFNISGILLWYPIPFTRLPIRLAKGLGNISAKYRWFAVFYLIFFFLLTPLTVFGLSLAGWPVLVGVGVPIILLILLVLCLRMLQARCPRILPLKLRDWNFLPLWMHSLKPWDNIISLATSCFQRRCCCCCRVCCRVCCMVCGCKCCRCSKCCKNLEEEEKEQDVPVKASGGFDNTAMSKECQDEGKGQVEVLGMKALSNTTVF
# Protocol: A similar method was used to determine the ability of LY3358966 to inhibit acute phosphate uptake into plasma in Sprague Dawley rats (192–225 g, n = 14/group). In the rat studies, a 2 ml volume of the radioactive phosphate dosing solution (about 10 million dpm of H3 ^33PO4) was dosed to each animal. Due to the low inhibitory activity at 15 min after dosing the compound, the effect at 4 h was not determined.
# Human PiT1 = biological target: T2, Human PiT1 (Homo sapiens, UniProt Q8WUM9); assay: 33P-phosphate uptake in CHO cells over-expressing human PiT1; type: cell-based
# T2 construct: Full Length cDNA Cloning and Generation of Cell Lines Over-Expressing Human NPT2a, NPT2c, Pit1, and Pit2; host or cells: CHO-K1, pcDNA3.1(+), constitutive
# T2 sequence (Q8WUM9 1-679): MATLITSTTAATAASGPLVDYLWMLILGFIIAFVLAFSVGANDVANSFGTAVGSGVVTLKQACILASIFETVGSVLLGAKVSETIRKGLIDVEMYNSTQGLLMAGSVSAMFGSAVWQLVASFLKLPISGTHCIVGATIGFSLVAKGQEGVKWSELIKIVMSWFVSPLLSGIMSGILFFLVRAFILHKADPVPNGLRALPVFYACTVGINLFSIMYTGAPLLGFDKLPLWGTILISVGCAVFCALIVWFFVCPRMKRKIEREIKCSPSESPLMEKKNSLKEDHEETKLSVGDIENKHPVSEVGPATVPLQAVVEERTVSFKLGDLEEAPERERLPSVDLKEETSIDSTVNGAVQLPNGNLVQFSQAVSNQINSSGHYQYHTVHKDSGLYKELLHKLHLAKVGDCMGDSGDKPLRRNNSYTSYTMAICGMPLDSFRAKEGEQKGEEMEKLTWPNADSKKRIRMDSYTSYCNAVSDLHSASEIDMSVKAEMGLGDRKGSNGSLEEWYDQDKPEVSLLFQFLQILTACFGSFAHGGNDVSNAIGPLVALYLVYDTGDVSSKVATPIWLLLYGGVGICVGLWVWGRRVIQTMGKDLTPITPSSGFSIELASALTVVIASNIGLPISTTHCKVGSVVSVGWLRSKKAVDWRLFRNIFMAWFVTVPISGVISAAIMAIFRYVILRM
# Protocol: T‐Rex™ Chinese Hamster Ovary cells (CHO; Thermo Fisher Scientific) stably expressing human, mouse, or rat NPT2b under a tetracycline‐inducible promoter were generated using standard cDNA transfection and clone selection procedures (see Supporting Information). Cells were plated in 96‐well CytoStar‐T® scintillating microplates and were incubated overnight in growth media plus 100 ng/ml of tetracycline to induce expression of NPT2b. The next day, cells were washed 3 times with 200 µl assay buffer (137 mM NaCl, 5.4 mM KCl, 2.8 mM CaCl2, 1.2 mM MgSO4, and 14 mM Tris‐HCl buffer, pH 7.5). LY3358966 serially diluted 1‐to‐3 in DMSO was added to cells with assay buffer. An equal volume of H3 ^33PO4 (PerkinElmer) in assay buffer supplemented with 5 µM potassium phosphate was then added to initiate radiolabeled phosphate (^33P‐phosphate) uptake. […] The plate was immediately read on a Wallac MicroBeta Trilux liquid scintillation counter. Percent inhibition at all concentrations tested was calculated, and IC50 values were then determined using a 4‐parameter logistic curve fitting equation.
# Similar methods were used to measure the effects of LY3358966 on other transporters of interest, except that constitutive promoters were used to generate CHO cells over‐expressing human PiT1 and PiT2. The ^33P‐phosphate uptake was measured after 45 min at 20°C for the NPT2a, NPT2c, PiT1, and PiT2 assays. […]
smiles,measurement,setting,value
"CC1(C)CN(C(=O)NCCCCO)CCN1Cc1cccc(C(=O)Nc2sc3c(c2C(=O)Nc2cc(F)c(CCc4ccc(C(=O)O)cc4)c(F)c2)CCCC3)c1 [LY3358966, 4‐[2‐[2,6‐difluoro‐4‐[[2‐[[3‐[[4‐(4‐hydroxybutylcarbamoyl)‐2,2‐dimethyl‐piperazin‐1‐yl]methyl]benzoyl]amino]‐4,5,6,7‐tetrahydrobenzothiophene‐3‐carbonyl]amino]phenyl]ethyl]benzoic acid]","decrease of acute phosphate uptake into plasma, mean ± SEM of three studies",NPT2b; 15 min,22% and 22 ± 3%
same,decrease of phosphate absorption (acute uptake into plasma),NPT2b; two additional single studies,28.2% and 19.2%
same,IC50,Human PiT1; 45 min at 20°C,> 100 µM
same,Selectivity,Human PiT1; ratio of IC50 of human PiT1 assay to that of human NPT2b assay,>3086
